Data as given in patent publication US8580814B2, “Methods of using (+)-1,4-dihydro-7-[(3S,4S)-3-methoxy-4-(methylamino)-1-pyrrolidinyl]-4- oxo-1-(2-thiazolyl)-1,8-naphthyridine-3-carboxylic acid for treatment of cancer” (priority 2006, dated 2013).
Marks after values point to notes of the source that are not given here.

Legend:
[1] = Solubility in acidic compositions; type: physicochemical; details: Acidic compositions (<pH 4)
Protocol: An illustrative example of a suitable composition comprises: 10 mg SNS-595 per mL of aqueous solution of 4.5% sorbitol that is adjusted to pH 2.5 with methanesulfonic acid. One protocol for making such a solution includes the following for making a 100 mg/10 mL presentation: 100 mg of SNS-595 and 450 mg D-sorbitol are added to distilled water; the volume is brought up to a volume of 10 mL; and the pH of the resulting solution is adjusted to 2.5 with methanesulfonic acid. The resulting composition is also suitable for lyophilization. The lyophilized form is then reconstituted with sterile water to the appropriate concentration prior to use.

[2] = system: HCT116 colon carcinoma cell line; test: Combination studies, MTT assay, Combination Index; type: cell-based
Protocol: Cell lines and Cell Culture: HCT116 and NCI-H460 cell lines were obtained from ATCC. SKOV3(p53−/−) and SKOV3(p53+/+) were obtained from the lab of Dr. George Stark of the Lerner Institute of the Cleveland Clinic. All cell lines were cultured in RPMI media supplemented with 10% FBS 1% Sodium Bicarbonate solution and 1% Antibiotic Solution (Cellgro).
MTT assay: Cells were plated at 4000 cells per well (except SKOV3 (p53−/−) which were plated at 8000 cells per well) in a 96 well plate, incubated for 24 hours and then treated with compound. Compound treatment lasted 72 hours. Cells were then incubated with 5% MTT for 1-2 hours, and lysed. MTT was colorimetrically read at 570 nm. The fraction of dead cells was determined by the following formula: Fraction of Dead cells=1−[Abs of sample well−Avg(Abs of no cell control)]/[Avg(Abs of DMSO only control)−Avg(abs of no cell control)]
Scheduling studies: When compounds were dosed with a schedule that included a washout, cells were washed with 100 μl of fresh warm media for 30 minutes, followed by another wash after 90 minutes.
Statistical Analysis: The data (Fraction of Dead cells) was analyzed using Calculsyn.V2 (Biosoft) and is herein represented as the value of the Combination Index at Fraction affected (Fa)=0.5. All data is shown with error bars indicating the 95% confidence intervals of the mean value.
A combination is said to be additive if it yields a Combination Index of 0.85-1.2. A combination is said to be synergistic if it yields a Combination Index less than 0.85 and a combination is said to be antagonistic if it yields a Combination Index of more than 1.2.

[3] = system: HCT-116 cells treated with 2 mM caffeine; test: Timing of apoptosis (caspase-3 activation); type: cell-based; details: Cell Line Caffeine (HCT-116, 2 mM caffeine); dosed at 30 fold above the EC50 for cytotoxicity
[4] = system: CCRF-CEM acute lymphoblastic leukemia tumor; test: CCRF-CEM xenograft model; type: in vivo, nude mice; details: q7d X3, IV, 25 mg/kg
Protocol: CCRF-CEM acute lymphoblastic leukemia tumor lobes of 2-3 mm square were transplanted subcutaneously into nude mice. Tumors were allowed to grow to approximately 8-20 mm in diameter. […] Acceptable toxicity was defined as a mean group weight loss of 30% or less and not more than one toxic death among 6 treated animals. Anti-tumor activities of the drugs were assessed 20 or 21 days after the start of administration. Table 14 provides data for tumor inhibition (TI) and survival rate in the CCRF-CEM and LM3-Jck xenograft models.

[5] = system: DNAPKcs(−/−) (MO59J); test: Timing of apoptosis (caspase-3 activation); type: cell-based; details: Cell Line DNAPKcs(−/−); dosed at 30 fold above the EC50 for cytotoxicity
[6] = system: M059J (DNAPKcs(−/−)) cells; test: Repair of DNA damage (gH2AX foci) in the absence of DNA-PK; type: cell-based; set-up: dose or concentration left out as unconfirmed; details: M059J vs M059K (wt), washout, 16 hours recovery
Protocol: Compound was then removed and cells were allowed to recover for 16 hours. Cells were analyzed for gH2AX foci before and after drug washout.

[7] = co-dosed, or dosed with 24 hours delay, HCT116

**Q.** What does the source list for `CN[C@H]1CN(c2ccc3c(=O)c(C(=O)O)cn(-c4nccs4)c3n2)C[C@@H]1OC` [SNS-595, (+)-1,4-dihydro-7-[(3S,4S)-3-methoxy-4-(methylamino)-1-pyrrolidinyl]-4-oxo-1-(2-thiazolyl)-1,8-naphthyridine-3-carboxylic acid]?
**A.** solubility [1]: increased solubility; combination indices ([2]; SNS-595 dosed simultaneously with various cytotoxics, HCT116, Fa=0.5): significantly synergistic or at least additive; combination effect with docetaxel [2, 7]: might have been antagonistic; combination effect with gemcitabin [2, 7]: might have been antagonistic; combination effect with docetaxel or gemcitabin ([2]; treated with the first agent, washed and then treated with the second agent (2 hr wash and 24 hr wash), HCT116): Additivity or possibly synergy; Timing of apoptosis: fraction of cell cycle to achieve 50% maximal caspase-3 activation [3]: 0.25; IR (%) (tumor inhibition rate) [4]: 98.1* %; Timing of apoptosis: fraction of cell cycle to achieve 50% maximal caspase-3 activation [5]: 0.25; repair of induced DNA damage (gH2AX foci) in the absence of DNA-PK [6]: not effectively repaired
